Results on 14 compounds are retold here after patent US11420969B2 (Exonate Limited, priority 2017, dated 2022).

pIC50: −log10 of the molar value. Some results are limits rather than exact numbers.

One assay has as its target SRPK1 (Homo sapiens, UniProt Q96SB4). Nature of the assay: In vitro SRPK1 assay (Kinase-Glo). Format: biochemical. (Kinase-Glo reads ATP consumption through a luciferase reaction.)
The next assay deals with T1, CYP1A2 (Homo sapiens, UniProt P05177).
T1 construct: from tissue; host or cells: human liver microsomes
T1 sequence (P05177 1-516): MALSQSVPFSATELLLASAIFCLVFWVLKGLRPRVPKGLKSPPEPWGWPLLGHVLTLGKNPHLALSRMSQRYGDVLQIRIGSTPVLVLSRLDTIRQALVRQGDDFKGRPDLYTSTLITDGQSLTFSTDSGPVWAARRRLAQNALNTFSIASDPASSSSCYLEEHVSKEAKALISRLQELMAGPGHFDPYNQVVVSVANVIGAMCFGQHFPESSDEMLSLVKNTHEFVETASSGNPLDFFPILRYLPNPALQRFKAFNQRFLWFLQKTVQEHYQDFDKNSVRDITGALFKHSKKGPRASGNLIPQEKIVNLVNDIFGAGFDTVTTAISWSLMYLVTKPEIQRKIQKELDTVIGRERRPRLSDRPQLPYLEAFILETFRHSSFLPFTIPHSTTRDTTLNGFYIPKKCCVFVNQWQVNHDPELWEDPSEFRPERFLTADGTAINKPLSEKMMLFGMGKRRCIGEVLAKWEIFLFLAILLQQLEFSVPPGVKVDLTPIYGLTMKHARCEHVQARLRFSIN
Nature of the assay: CYP inhibition assay, human liver microsomes, substrate tacrine. In kind it is in vitro ADME. Particulars: human liver microsomes, 10 min incubation, LC-MS/MS; read-out: CYP Inhibition Activity (IC50/nM) CYP1A2. In outline: (§1)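 Human liver microsomes with pooled substrates, test compound or positive inhibitor pre-incubated 20 min at 37° C, then NADPH-started reaction for 10 min at 37° C. Stopped with cold acetonitrile; metabolites quantified by LC-MS/MS, giving % inhibition and IC50.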
A general note: Liver microsomes are vesicles of endoplasmic reticulum, rich in cytochrome P450 enzymes.

A further assay addresses T2, CYP2C9 (Homo sapiens, UniProt P11712).
T2 construct: from tissue; host or cells: human liver microsomes
Nature of the assay: CYP inhibition assay, human liver microsomes, substrate diclofenac. In kind it is in vitro ADME. Particulars: human liver microsomes, 10 min incubation, LC-MS/MS; read-out: CYP Inhibition Activity (IC50/nM) CYP2C9. In outline:
as §1

In another assay the target is T3, CYP2C19 (Homo sapiens, UniProt P33261).
T3 construct: from tissue; host or cells: human liver microsomes
T3 sequence (P33261 whole entry): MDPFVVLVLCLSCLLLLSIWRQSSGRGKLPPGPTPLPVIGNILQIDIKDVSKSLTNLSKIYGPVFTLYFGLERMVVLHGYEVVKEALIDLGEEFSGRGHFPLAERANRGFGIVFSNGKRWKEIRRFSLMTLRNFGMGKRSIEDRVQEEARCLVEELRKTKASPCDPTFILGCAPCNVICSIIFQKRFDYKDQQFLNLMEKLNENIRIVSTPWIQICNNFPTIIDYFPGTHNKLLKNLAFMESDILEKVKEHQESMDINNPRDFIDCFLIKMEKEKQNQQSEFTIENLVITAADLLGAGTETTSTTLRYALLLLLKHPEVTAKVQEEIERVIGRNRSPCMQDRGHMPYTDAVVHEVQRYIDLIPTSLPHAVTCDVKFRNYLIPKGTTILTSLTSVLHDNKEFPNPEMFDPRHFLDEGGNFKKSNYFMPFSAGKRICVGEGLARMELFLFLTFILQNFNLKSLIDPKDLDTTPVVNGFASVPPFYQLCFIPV
Nature of the assay: CYP inhibition assay, human liver microsomes, substrate S-mephenytoin. The settings on record: human liver microsomes, 10 min incubation, LC-MS/MS; read-out: CYP Inhibition Activity (IC50/nM) CYP2C19. Format: in vitro ADME. In outline: as §1

The next assay deals with T4, CYP2D6 (Homo sapiens, UniProt P10635).
T4 construct: from tissue; host or cells: human liver microsomes
T4 sequence (P10635 whole entry): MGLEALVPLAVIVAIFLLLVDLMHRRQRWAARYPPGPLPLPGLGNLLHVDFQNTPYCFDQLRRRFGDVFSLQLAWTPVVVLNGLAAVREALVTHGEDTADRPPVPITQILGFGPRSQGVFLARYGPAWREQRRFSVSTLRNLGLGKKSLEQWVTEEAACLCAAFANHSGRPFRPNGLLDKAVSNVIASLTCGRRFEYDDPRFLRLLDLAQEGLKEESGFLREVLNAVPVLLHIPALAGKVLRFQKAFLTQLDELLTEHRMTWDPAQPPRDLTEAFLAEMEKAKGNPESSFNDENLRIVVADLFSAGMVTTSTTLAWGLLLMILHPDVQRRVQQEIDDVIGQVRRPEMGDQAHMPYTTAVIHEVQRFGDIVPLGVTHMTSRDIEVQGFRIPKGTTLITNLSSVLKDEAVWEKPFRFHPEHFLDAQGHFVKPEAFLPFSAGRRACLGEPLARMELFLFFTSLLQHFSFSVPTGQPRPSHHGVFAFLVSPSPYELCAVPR
Nature of the assay: biochemical. Format: in vitro ADME. In outline: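 Human liver microsomes (0.253 mg/mL working stock) pre-incubated with compound and substrate pool at 37° C for 20 min. Reaction started with NADPH and run 10 min at 37° C, stopped with cold ACN. Metabolite analysed by LC-MS/MS; % inhibition and IC50 calculated versus inhibitor-free control.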

A further assay addresses T5, CYP3A4 (Homo sapiens, UniProt P08684).
T5 construct: from tissue; host or cells: human liver microsomes
Nature of the assay: CYP inhibition assay, human liver microsomes, substrate midazolam. The settings on record: human liver microsomes, 10 min incubation, LC-MS/MS; read-out: CYP Inhibition Activity (IC50/nM) CYP3A4. Format: in vitro ADME. In outline:
as §1

T2 sequence (P11712 whole entry): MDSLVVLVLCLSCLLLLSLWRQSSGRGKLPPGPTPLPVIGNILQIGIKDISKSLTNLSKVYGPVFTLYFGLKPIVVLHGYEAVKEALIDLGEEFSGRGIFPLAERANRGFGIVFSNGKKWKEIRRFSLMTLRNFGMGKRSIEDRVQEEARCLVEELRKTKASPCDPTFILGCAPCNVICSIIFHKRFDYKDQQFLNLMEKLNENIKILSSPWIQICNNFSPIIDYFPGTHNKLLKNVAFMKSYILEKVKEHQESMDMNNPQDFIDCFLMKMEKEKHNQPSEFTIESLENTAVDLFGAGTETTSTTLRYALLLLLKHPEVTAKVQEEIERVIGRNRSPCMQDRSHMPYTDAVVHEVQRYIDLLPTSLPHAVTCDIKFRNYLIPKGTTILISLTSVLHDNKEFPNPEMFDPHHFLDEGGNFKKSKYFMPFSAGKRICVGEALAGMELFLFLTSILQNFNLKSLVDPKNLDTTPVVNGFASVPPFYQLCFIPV
T5 sequence (P08684 whole entry): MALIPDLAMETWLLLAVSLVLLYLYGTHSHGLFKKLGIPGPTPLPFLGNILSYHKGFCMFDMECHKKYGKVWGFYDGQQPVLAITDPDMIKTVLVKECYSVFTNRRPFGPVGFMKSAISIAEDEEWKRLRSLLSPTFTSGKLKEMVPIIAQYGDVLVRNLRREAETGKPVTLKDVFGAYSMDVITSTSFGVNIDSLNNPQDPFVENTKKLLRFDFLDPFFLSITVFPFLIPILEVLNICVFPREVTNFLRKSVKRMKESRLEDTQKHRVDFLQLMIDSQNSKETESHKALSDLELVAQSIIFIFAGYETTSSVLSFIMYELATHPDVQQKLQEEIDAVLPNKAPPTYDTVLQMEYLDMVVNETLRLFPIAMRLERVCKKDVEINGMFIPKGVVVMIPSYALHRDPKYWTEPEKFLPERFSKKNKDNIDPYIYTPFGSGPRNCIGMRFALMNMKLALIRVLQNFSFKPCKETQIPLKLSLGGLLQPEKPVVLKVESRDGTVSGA
Sequence of SRPK1 (Q96SB4 whole entry, species assumed): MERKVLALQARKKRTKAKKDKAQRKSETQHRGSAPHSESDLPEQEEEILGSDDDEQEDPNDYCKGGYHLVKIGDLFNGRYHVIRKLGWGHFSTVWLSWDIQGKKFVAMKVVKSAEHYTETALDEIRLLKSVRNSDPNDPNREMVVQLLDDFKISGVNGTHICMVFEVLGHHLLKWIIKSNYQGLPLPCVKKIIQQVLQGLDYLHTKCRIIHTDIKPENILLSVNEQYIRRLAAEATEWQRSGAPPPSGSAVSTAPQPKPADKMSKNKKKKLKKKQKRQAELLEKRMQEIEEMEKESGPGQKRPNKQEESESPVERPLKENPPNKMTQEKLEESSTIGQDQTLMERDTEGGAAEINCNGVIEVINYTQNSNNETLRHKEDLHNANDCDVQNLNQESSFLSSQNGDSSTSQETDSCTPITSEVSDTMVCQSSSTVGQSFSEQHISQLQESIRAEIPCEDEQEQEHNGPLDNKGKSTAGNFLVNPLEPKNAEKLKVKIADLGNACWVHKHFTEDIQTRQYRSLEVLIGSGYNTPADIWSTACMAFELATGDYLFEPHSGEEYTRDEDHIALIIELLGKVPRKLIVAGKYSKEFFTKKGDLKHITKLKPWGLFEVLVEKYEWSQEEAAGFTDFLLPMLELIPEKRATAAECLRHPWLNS

In the case of `O=C(Nc1cc(C(F)(F)F)ccc1N1CCC(O)C1)c1ccc(-c2ccncc2)o1` (racemic) [Example 56, N-(2-(3-hydroxypyrrolidin-1-yl)-5-(trifluoromethyl)-phenyl)-5-(pyridin-4-yl)furan-2-carboxamide], the IC50 came to 101 nM against SRPK1; 960 nM at CYP1A2; 140 nM at CYP2C9; 130 nM on CYP2C19; 2420 nM at CYP3A4. Besides, the pIC50 (usually −log10 of the IC50, conventionally taken in molar units) on CYP2D6 is 7.40.
Consider `CC1(CN)CCN(c2ccc(C(F)(F)F)cc2NC(=O)c2ccc(-c3ccncc3)o2)CC1` [Example 78, N-(2-(4-(aminomethyl)-4-methylpiperidin-1-yl)-5-(trifluoromethyl)phenyl)-5-(pyridin-4-yl)furan-2-carboxamide], for which the IC50 is 9.1 nM against SRPK1; more than 30000 nM on CYP1A2; 9130 nM at CYP2C9; 20000 nM on CYP2C19; 8320 nM on CYP3A4. The compound also showed a negative logarithm of the IC50 (pIC50) against CYP2D6 of 5.89.
`COc1ccc(N2CCC(C)(C(=O)N(C)C)CC2)c(NC(=O)c2ccc(C3CCOCC3)o2)c1` [Example 85, 1-(4-methoxy-2-(5-(tetrahydro-2H-pyran-4-yl)furan-2-carboxamido)phenyl)-N,N,4-trimethyl-piperidine-4-carboxamide]: the IC50 against SRPK1 is 43 nM; at CYP1A2, more than 30000 nM; at CYP2C9 it was 800 nM; on CYP2C19, 21700 nM; at CYP3A4, 20700 nM. On CYP2D6, this compound had a negative-log IC50 (pIC50) of less than 4.52.
As for `CC1(O)CCCN(c2ccc(C3CC3)cc2NC(=O)c2ccc(C3CCOCC3)o2)CC1` (racemic) [Example 42, N-(5-cyclopropyl-2-(4-hydroxy-4-methylazepan-1-yl)phenyl)-5-(tetrahydro-2H-pyran-4-yl)furan-2-carboxamide], the IC50 on SRPK1 was 13 nM; on CYP1A2 it was more than 30000 nM; at CYP2C9, 610 nM; on CYP2C19, 530 nM; on CYP3A4, 10300 nM. At CYP2D6, this compound showed a pIC50 of 4.78.
Regarding `CCC1(O)CCN(c2ccc(C(F)(F)F)cc2NC(=O)c2ccc(C3CCOCC3)o2)CC1` [Example 20, N-(2-(4-ethyl-4-hydroxypiperidin-1-yl)-5-(trifluoromethyl)phenyl)-5-(tetrahydro-2H-pyran-4-yl)furan-2-carboxamide], the IC50 at SRPK1 was 6 nM; at CYP1A2, more than 30000 nM; at CYP2C9, more than 30000 nM; at CYP2C19 it was more than 30000 nM; at CYP3A4 it was more than 30000 nM. In addition, on CYP2D6, the pIC50 was less than 4.52.
As to `O=C(Nc1cc(C(F)(F)F)ccc1N1CCC(O)(CC2CC2)CC1)c1ccc(C2CCOCC2)o1` [Example 23, N-(2-(4-(cyclopropylmethyl)-4-hydroxypiperidin-1-yl)-5-(trifluoromethyl)phenyl)-5-(tetrahydro-2H-pyran-4-yl)furan-2-carboxamide], the IC50 against SRPK1 was 64 nM; at CYP1A2, 2510 nM; on CYP2C9, 220 nM; on CYP2C19, 260 nM; at CYP3A4, 2650 nM. The negative-log IC50 (pIC50) on CYP2D6 was 7.52.
Turning to `CNC(=O)C1(C)CCN(c2ccc(C(F)(F)F)cc2NC(=O)c2ccc(C3CCOCC3)o2)CC1` [Example 76, N,4-dimethyl-1-(2-(5-(tetrahydro-2H-pyran-4-yl)furan-2-carboxamido)-4-(trifluoromethyl)-phenyl)piperidine-4-carboxamide], the IC50 on SRPK1 was 3.2 nM; on CYP1A2 it was more than 30000 nM; on CYP2C9, 1700 nM; at CYP2C19 it was 4250 nM; at CYP3A4 it was 750 nM. This compound gave a pIC50 at CYP2D6 of 5.06.
With `O=C(Nc1cc(C(F)(F)F)ccc1N1CCC(O)C1)c1ccc(C2CCOCC2)o1` (racemic) [Example 57, N-(2-(3-hydroxypyrrolidin-1-yl)-5-(trifluoromethyl)-phenyl)-5-(tetrahydro-2H-pyran-4-yl)furan-2-carboxamide], the IC50 against SRPK1 was 75 nM; at CYP1A2, 9160 nM; at CYP2C9, 5550 nM; at CYP2C19, 14500 nM; at CYP3A4, more than 30000 nM. The negative logarithm of the IC50 (pIC50) against CYP2D6 was 4.94.
With `CN(C)CC1(C)CCN(c2ccc(C(F)(F)F)cc2NC(=O)c2ccc(C3CCOCC3)o2)CC1` [Example 83, N-(2-(4-((dimethylamino)methyl)-4-methyl-piperidin-1-yl)-5-(trifluoromethyl)phenyl)-5-(tetrahydro-2H-pyran-4-yl)furan-2-carboxamide], the IC50 against SRPK1 was 3.2 nM; on CYP1A2, more than 30000 nM; on CYP2C9, 24300 nM; at CYP2C19 it was more than 30000 nM; on CYP3A4, 21000 nM. The pIC50 against CYP2D6 is 5.49.
For `COc1ccc(N2CCC(C)(O)CC2)c(NC(=O)c2ccc(C3CCOCC3)o2)c1` [Example 15, N-(2-(4-hydroxy-4-methylpiperidin-1-yl)-5-methoxyphenyl)-5-(tetrahydro-2H-pyran-4-yl)furan-2-carboxamide], the IC50 against SRPK1 worked out at 5.2 nM; on CYP1A2 it was 6270 nM; at CYP2C9, 2970 nM; on CYP2C19, 7690 nM; at CYP3A4, 10600 nM. The compound also gave a pIC50 against CYP2D6 of 4.72.
Take `CN1CCC2(CCN(c3ccc(C(F)(F)F)cc3NC(=O)c3ccc(C4CCOCC4)o3)CC2)C1` [Example 99, N-(2-(2-methyl-2,8-diazaspiro[4.5]decan-8-yl)-5-(trifluoromethyl)phenyl)-5-(tetrahydro-2H-pyran-4-yl)furan-2-carboxamide]: the IC50 against SRPK1 was 4.8 nM; on CYP1A2 it was more than 30000 nM; at CYP2C9, more than 30000 nM; at CYP2C19, more than 30000 nM; on CYP3A4 it was 18000 nM. The compound further showed a pIC50 at CYP2D6 of 5.52.
With `CC1(CO)CCN(c2ccc(C3CC3)cc2NC(=O)c2ccc(C3CCOCC3)o2)CC1` [Example 67, N-(5-cyclopropyl-2-(4-(hydroxymethyl)-4-methylpiperidin-1-yl)phenyl)-5-(tetrahydro-2H-pyran-4-yl)furan-2-carboxamide], the IC50 against SRPK1 is 4.1 nM; at CYP1A2, more than 30000 nM; on CYP2C9 it was 3300 nM; on CYP2C19, 7900 nM; on CYP3A4 it was more than 30000 nM. Besides, at CYP2D6, the pIC50 was less than 4.52.
In the case of `CC1(C)CCN(c2ccc(C3CC3)cc2NC(=O)c2ccc(C3CCOCC3)o2)CC1` [Example 64, N-(5-cyclopropyl-2-(4,4-dimethylpiperidin-1-yl)phenyl)-5-(tetrahydro-2H-pyran-4-yl)furan-2-carboxamide], the IC50 was 5.6 nM against SRPK1; more than 30000 nM on CYP1A2; 15800 nM at CYP2C9; more than 30000 nM on CYP2C19; more than 30000 nM at CYP3A4. This compound also had a pIC50 at CYP2D6 of less than 4.52.
Turning to `CC1(CN2CCCCC2)CCN(c2ccc(C(F)(F)F)cc2NC(=O)c2ccc(C3CCOCC3)o2)CC1` [Example 96, N-(2-(4-methyl-4-(piperidin-1-ylmethyl)piperidin-1-yl)-5-(trifluoromethyl)phenyl)-5-(tetrahydro-2H-pyran-4-yl)furan-2-carboxamide], the IC50 at SRPK1 was 49 nM; at CYP1A2 it was more than 30000 nM; on CYP2C9 it was 17800 nM; at CYP2C19 it was more than 30000 nM; on CYP3A4, 7700 nM. Also, the pIC50 at CYP2D6 was 6.70.
